Measured values: PMC2606880 (Diabetes, 2009)
Where two headings read alike, the source gives them in different places.

Assays:
[1] = cited from earlier work
type 2 diabetic patients = settings: 4 weeks of treatment; cited from earlier work
conscious dogs [2] = assay type: in vivo, dog; settings: for Net hepatic alanine uptake / Net hepatic glycerol uptake / Plasma free fatty acid level: vildagliptin 1 mg/kg oral, mean ± SE, n = 6
conscious dogs [3] = assay: Plasma pancreatic hormone levels; assay type: in vivo, dog; settings: vildagliptin-treated group
conscious dogs [4] = assay type: in vivo, dog; settings: vildagliptin-treated group
conscious dogs [5] = assay: Tolerability of oral vildagliptin; assay type: in vivo, dog; settings: vildagliptin 1 mg/kg by stomach gavage; all animals
[6] = basal period, mean ± SEM, n = 6

CC[C@H](C)[C@H](NC(=O)[C@H](Cc1ccccc1)NC(=O)[C@H](CCC(=O)O)NC(=O)[C@H](CCCCN)NC(=O)[C@H](C)NC(=O)[C@H](C)NC(=O)[C@H](CCC(N)=O)NC(=O)CNC(=O)[C@H](CCC(=O)O)NC(=O)[C@H](CC(C)C)NC(=O)[C@H](Cc1ccc(O)cc1)NC(=O)[C@H](CO)NC(=O)[C@H](CO)NC(=O)[C@@H](NC(=O)[C@H](CC(=O)O)NC(=O)[C@H](CO)NC(=O)[C@@H](NC(=O)[C@H](Cc1ccccc1)NC(=O)[C@@H](NC(=O)CNC(=O)[C@H](CCC(=O)O)NC(=O)[C@H](C)NC(=O)[C@@H](N)Cc1c[nH]cn1)[C@@H](C)O)[C@@H](C)O)C(C)C)C(=O)N[C@@H](C)C(=O)N[C@@H](Cc1c[nH]c2ccccc12)C(=O)N[C@@H](CC(C)C)C(=O)N[C@H](C(=O)N[C@@H](CCCCN)C(=O)NCC(=O)N[C@@H](CCCNC(=N)N)C(N)=O)C(C)C [GLP-1, Glucagon-like peptide 1]
share of the kidneys in the degradation of intact GLP-1 [1]: 10–20% | clearance (dog, in vivo, iv): 38 ± 5 mL/min/kg

N#C[C@@H]1CCCN1C(=O)CNC12CC3CC(CC(O)(C3)C1)C2 [Vildagliptin]
increase in the rise in active GLP-1 after meals (type 2 diabetic patients): twofold or greater increase | Free fatty acid and glycerol levels lower than in control (conscious dogs [2]; basal period, vildagliptin-treated group): ~25% | Net hepatic alanine uptake (conscious dogs [2]; experimental period 60 min): 1.8 ± 0.2 µmol/kg/min | Net hepatic glycerol uptake (conscious dogs [2]; experimental period 60 min): 0.5 ± 0.2 µmol/kg/min | Plasma free fatty acid level (conscious dogs [2]; experimental period 60 min): 111 ± 23 µmol/L | Net hepatic alanine uptake (conscious dogs [2]; experimental period 120 min): 2.0 ± 0.5 µmol/kg/min | Net hepatic glycerol uptake (conscious dogs [2]; experimental period 120 min): 0.5 ± 0.1 µmol/kg/min | Plasma free fatty acid level (conscious dogs [2]; experimental period 120 min): 88 ± 26 µmol/L | Net hepatic alanine uptake (conscious dogs [2]; experimental period 180 min): 2.2 ± 0.2 µmol/kg/min | Net hepatic glycerol uptake (conscious dogs [2]; experimental period 180 min): 0.4 ± 0.2 µmol/kg/min | Plasma free fatty acid level (conscious dogs [2]; experimental period 180 min): 71 ± 25 µmol/L | Net hepatic alanine uptake (conscious dogs [2]; experimental period 210 min): 2.4 ± 0.2 µmol/kg/min | Net hepatic glycerol uptake (conscious dogs [2]; experimental period 210 min): 0.5 ± 0.2 µmol/kg/min | Plasma free fatty acid level (conscious dogs [2]; experimental period 210 min): 82 ± 31 µmol/L | Net hepatic alanine uptake (conscious dogs [2]; experimental period 240 min): 2.5 ± 0.3 µmol/kg/min | Net hepatic glycerol uptake (conscious dogs [2]; experimental period 240 min): 0.3 ± 0.1 µmol/kg/min | Plasma free fatty acid level (conscious dogs [2]; experimental period 240 min): 66 ± 15 µmol/L | increase of arterial plasma C-peptide (conscious dogs [3]; basal period to last 3 h): 3.6 fold | Hepatic sinusoidal plasma glucagon level (conscious dogs [3]; [6]): 43 ± 3 pg/mL | arterial plasma C-peptide level (conscious dogs [3]; [6]): 0.39 ± 0.04 ng/mL | arterial plasma insulin (conscious dogs [3]; [6]): 6 ± 1 μU/ml | hepatic sinusoidal plasma insulin (conscious dogs [3]; [6]): 17 ± 3 μU/ml | Hepatic sinusoidal plasma glucagon level (conscious dogs [3]; experimental period, mean ± SEM, n = 6): 23 ± 4 pg/mL | increase of arterial plasma insulin from basal period to last 3 h (conscious dogs [3]): 5.5 fold | increase of hepatic sinusoidal plasma insulin from basal period to last 3 h (conscious dogs [3]): 5.4 fold | average hepatic insulin level greater than in the control group (conscious dogs [3]; not statistically significant): 15 μU/ml | increase in arterial and portal vein GLP-1 concentrations (vildagliptin 1 mg/kg oral vs control): 70% | increase of nonhepatic glucose uptake from basal (conscious dogs [4]; basal period to last 3 h, not significant vs control): 8.1 ± 1.4 mg/kg/min | Nonhepatic glucose uptake (non-HGU) (conscious dogs [4]; [6]): 2.3 ± 0.3 mg/kg/min | net hepatic glucose balance (positive = output) (conscious dogs [4]; [6]): 2.1 ± 0.2 mg/kg/min | Nonhepatic glucose uptake (non-HGU) (conscious dogs [4]; last 3 h, mean ± SEM, n = 6): 10.4 ± 1.4 mg/kg/min | net hepatic glucose fractional extraction (conscious dogs [4]; last 3 h, mean ± SEM, n = 6, P < 0.05): 0.06 ± 0.01 | tolerability (conscious dogs [5]): well tolerated
